Experiments:
[1] = target: 5'-AMP-activated protein kinase catalytic subunit alpha-2 (Homo sapiens) (UniProt P54646)
[2] = target: Calcium/calmodulin-dependent protein kinase type 1D (Homo sapiens) (UniProt Q8IU85)
[3] = target: Cyclin-dependent kinase 2 (Homo sapiens, UniProt P24941)
[4] = target: Serine/threonine-protein kinase Chk2 (Homo sapiens, UniProt O96017)
[5] = target: Dual specificity protein kinase CLK3 (Homo sapiens) (UniProt P49761)
[6] = target: Casein kinase I isoform gamma-2 (Homo sapiens) (UniProt P78368)
Chain of Casein kinase I isoform gamma-2 (Homo sapiens) (P78368 whole entry, looked up, canonical isoform): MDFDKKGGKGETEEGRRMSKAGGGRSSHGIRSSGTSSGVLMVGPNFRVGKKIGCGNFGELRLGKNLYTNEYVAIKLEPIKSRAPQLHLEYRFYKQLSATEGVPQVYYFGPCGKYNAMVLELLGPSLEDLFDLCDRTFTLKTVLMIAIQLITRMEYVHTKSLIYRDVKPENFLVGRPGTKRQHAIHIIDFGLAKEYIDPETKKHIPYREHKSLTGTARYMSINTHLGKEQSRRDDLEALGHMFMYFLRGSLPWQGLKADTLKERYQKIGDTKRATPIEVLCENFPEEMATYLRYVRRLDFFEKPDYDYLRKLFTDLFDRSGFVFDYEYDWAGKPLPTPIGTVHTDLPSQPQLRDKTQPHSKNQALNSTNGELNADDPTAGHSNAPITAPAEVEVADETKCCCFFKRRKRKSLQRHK

[7] = target: Mitogen-activated protein kinase 3 (Homo sapiens, UniProt P27361)
Chain of Mitogen-activated protein kinase 3 (P27361 whole entry): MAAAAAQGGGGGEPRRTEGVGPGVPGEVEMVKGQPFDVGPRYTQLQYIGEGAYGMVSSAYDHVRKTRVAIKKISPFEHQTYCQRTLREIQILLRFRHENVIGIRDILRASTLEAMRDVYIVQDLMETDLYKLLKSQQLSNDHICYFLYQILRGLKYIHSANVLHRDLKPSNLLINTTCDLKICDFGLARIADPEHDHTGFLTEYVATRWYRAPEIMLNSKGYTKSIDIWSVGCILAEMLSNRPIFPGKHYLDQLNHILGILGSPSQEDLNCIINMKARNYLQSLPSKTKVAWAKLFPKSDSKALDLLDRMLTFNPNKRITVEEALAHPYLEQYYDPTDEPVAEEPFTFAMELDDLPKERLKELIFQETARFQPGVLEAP

[8] = target: Serine/threonine-protein kinase pim-1 (Homo sapiens) (UniProt P11309)
Chain of Serine/threonine-protein kinase pim-1 (Homo sapiens) (P11309 whole entry, looked up): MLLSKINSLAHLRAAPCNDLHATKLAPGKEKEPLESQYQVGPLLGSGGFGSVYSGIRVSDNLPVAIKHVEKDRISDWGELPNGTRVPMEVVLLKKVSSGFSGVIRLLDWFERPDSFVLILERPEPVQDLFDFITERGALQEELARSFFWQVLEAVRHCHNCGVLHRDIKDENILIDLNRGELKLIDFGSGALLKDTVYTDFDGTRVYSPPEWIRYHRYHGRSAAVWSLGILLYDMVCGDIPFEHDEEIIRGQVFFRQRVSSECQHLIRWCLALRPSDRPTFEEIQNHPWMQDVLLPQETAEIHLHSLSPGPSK

[9] = target: T1, Serine/threonine-protein kinase PLK4 (Homo sapiens) (UniProt O00444)
T1 sequence (whole entry): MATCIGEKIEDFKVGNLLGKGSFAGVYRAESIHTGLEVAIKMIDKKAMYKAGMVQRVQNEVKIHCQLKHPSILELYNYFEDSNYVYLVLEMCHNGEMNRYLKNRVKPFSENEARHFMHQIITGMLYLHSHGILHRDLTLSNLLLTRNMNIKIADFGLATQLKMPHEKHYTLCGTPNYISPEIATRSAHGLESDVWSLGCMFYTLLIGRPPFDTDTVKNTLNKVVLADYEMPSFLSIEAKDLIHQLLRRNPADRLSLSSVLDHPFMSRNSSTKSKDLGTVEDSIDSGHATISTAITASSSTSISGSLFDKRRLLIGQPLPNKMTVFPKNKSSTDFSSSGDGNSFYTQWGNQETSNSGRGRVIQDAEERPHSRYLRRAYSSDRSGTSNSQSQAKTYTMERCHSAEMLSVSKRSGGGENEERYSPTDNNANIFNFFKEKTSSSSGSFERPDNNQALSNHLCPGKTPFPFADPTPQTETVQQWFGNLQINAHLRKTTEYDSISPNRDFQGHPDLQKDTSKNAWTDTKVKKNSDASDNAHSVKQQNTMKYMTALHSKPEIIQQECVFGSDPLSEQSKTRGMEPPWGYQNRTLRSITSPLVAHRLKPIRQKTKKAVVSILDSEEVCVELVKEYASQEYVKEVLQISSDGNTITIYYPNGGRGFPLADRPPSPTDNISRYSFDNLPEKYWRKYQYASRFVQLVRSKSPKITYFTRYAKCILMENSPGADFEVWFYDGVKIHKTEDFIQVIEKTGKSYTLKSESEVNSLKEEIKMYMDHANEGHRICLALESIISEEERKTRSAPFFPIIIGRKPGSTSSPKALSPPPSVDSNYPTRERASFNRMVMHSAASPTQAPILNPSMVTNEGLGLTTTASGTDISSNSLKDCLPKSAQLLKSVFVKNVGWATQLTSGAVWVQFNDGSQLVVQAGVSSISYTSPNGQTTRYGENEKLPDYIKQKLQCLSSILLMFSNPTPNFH

[10] = target: Serine/threonine-protein kinase 38 (Homo sapiens) (UniProt Q15208)
Chain of Serine/threonine-protein kinase 38 (Homo sapiens) (Q15208 2-465 limits assumed): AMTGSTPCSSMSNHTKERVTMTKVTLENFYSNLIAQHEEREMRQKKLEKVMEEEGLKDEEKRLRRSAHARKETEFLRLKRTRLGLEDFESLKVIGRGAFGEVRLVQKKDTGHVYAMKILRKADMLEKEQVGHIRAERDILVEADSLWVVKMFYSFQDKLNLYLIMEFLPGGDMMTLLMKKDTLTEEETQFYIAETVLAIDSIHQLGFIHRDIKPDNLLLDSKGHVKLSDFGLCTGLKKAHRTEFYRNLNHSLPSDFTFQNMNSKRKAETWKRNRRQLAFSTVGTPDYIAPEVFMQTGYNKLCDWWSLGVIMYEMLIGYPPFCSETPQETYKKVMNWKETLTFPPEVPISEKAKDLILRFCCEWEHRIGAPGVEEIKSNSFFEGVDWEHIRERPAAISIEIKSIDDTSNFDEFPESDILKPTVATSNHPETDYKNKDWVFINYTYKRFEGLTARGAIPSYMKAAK

Chain of Calcium/calmodulin-dependent protein kinase type 1D (Homo sapiens) (Q8IU85 whole entry, looked up): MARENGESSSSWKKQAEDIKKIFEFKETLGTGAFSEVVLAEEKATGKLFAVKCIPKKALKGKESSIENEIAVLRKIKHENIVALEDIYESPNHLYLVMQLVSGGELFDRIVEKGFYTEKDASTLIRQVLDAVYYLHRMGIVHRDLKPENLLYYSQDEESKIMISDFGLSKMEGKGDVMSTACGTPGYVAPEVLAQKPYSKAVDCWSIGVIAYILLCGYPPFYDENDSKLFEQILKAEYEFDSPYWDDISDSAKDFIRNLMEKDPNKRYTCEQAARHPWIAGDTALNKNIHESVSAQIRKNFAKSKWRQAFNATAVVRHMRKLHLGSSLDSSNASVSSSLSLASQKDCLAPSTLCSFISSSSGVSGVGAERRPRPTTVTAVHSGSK
Chain of 5'-AMP-activated protein kinase catalytic subunit alpha-2 (Homo sapiens) (P54646 whole entry, looked up): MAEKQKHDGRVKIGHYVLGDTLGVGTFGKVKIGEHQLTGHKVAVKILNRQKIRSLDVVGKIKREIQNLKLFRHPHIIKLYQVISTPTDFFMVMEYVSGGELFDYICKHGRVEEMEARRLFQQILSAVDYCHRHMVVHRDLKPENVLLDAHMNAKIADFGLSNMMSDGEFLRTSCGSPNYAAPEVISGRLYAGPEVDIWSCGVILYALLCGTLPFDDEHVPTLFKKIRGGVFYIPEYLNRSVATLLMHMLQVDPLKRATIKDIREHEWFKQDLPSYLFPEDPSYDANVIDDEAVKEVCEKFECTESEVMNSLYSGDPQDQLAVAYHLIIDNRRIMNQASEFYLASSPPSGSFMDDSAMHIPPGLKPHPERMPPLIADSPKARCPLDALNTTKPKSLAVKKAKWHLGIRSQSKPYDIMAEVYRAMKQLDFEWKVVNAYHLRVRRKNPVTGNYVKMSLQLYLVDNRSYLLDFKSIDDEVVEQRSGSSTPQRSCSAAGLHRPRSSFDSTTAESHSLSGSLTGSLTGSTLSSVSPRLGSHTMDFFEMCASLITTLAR
Chain of Serine/threonine-protein kinase Chk2 (O96017 whole entry): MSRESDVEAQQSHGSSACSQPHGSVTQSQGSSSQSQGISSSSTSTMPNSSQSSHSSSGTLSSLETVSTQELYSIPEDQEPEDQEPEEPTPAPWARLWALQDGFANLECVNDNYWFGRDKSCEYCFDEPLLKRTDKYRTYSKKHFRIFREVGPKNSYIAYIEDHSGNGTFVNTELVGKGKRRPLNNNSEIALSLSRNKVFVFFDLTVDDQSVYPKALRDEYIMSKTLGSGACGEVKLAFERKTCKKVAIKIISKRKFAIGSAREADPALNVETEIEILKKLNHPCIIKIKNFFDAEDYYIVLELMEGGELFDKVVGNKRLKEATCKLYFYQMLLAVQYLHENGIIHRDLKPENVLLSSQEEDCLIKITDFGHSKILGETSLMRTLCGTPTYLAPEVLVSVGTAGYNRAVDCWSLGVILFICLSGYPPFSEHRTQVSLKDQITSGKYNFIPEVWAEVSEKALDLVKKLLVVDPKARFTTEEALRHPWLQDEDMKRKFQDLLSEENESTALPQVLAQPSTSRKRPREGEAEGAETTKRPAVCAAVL
Chain of Dual specificity protein kinase CLK3 (Homo sapiens) (P49761 whole entry, looked up, canonical isoform): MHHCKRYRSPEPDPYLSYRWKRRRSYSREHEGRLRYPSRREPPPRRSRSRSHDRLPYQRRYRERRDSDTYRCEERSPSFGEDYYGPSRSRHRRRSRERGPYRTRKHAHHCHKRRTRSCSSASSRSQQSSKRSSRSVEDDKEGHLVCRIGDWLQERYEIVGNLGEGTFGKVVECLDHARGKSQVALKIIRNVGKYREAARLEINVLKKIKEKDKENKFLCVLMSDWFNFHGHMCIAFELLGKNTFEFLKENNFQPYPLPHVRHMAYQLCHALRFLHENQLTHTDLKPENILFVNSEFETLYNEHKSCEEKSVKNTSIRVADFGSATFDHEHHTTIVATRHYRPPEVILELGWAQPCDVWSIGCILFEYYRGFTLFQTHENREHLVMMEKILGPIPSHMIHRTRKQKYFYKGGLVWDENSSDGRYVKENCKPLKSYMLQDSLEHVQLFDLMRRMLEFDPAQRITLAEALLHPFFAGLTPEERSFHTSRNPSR

Compound	ΔTm [1]	ΔTm [2]	ΔTm [3]	ΔTm [4]	ΔTm [5]	ΔTm [6]	ΔTm [7]	ΔTm [8]	ΔTm [9]	ΔTm [10]
COc1ccc(Cl)cc1NC(=O)Nc1cc(C)nc2ccccc12	-0.4 °C	2.2 °C	-0.6 °C	2.4 °C	-0.1 °C	-0.1 °C	2.5 °C	-1.1 °C	3.4 °C	0.1 °C
Cc1ccc(NC2=CC(=O)c3sc(C)nc3C2=O)cc1	0 °C	-1.6 °C	0.2 °C	-1.8 °C	-0.5 °C	0 °C	-1.5 °C	-1.3 °C	-0.3 °C	-1 °C
C[S+]([O-])c1ccc(-c2nc(-c3ccc(F)cc3)c(-c3ccncc3)[nH]2)cc1 (stereo not given) [SB-203580]	-0.9 °C	-0.2 °C	-0.1 °C	-0.5 °C	-0.1 °C	0.7 °C	0.1 °C	-2.1 °C	0.7 °C	0.2 °C
O=C1c2ccccc2-[n+]2ccc3c([nH]c4ccccc43)c21 [FASCAPLYSIN CHLORIDE]	0 °C	-4.3 °C	0 °C	4.9 °C	-0.9 °C	-0.3 °C	0.3 °C	-0.8 °C	-0.1 °C	-0.5 °C
Cc1c2ccncc2c(C)c2c1[nH]c1ccccc12 [ELLIPTECINE]	1.8 °C	1.2 °C	1.6 °C	2 °C	4.2 °C	0.2 °C	0.3 °C	4.8 °C	3.3 °C	1.1 °C
Oc1cc(O)cc(/C=C/c2ccc(O)c(O)c2)c1 [PICEATANNOL]	0.2 °C	1.1 °C	1.2 °C	1.9 °C	0.7 °C	0.2 °C	0.2 °C	3.2 °C	1.1 °C	1.7 °C
C[C@@H]1C[C@H]2O[C@@H]2/C=C\C=C\C(=O)Cc2c(Cl)c(O)cc(O)c2C(=O)O1 [RADICICOL]	-0.3 °C	0 °C	0.5 °C	1.6 °C	0 °C	0 °C	0 °C	-0.1 °C	0.5 °C	0.3 °C
N=C(N)NCCNS(=O)(=O)c1cccc2cnccc12	0.5 °C	0 °C	0.3 °C	0.2 °C	0 °C	0.4 °C	0.1 °C	-0.4 °C	0.1 °C	0.1 °C
C[S+]([O-])c1ccc(CSc2nc(-c3ccc(F)cc3)c(-c3ccncc3)[nH]2)cc1 (stereo not given)	-0.3 °C	0 °C	0.5 °C	-0.4 °C	-0.1 °C	0.9 °C	0.3 °C	-2 °C	0.3 °C	0.4 °C
COc1ccc(S(=O)(=O)N(CCO)c2ccccc2CN(C)C/C=C/c2ccc(Cl)cc2)cc1	-1 °C	-0.3 °C	0 °C	-0.1 °C	-0.3 °C	0.3 °C	0.1 °C	1.3 °C	1 °C	-0.2 °C
COc1nccc(-c2c(-c3ccc(F)cc3)ncn2[C@H]2CC[C@H](O)CC2)n1	0.7 °C	-0.1 °C	-0.6 °C	1.2 °C	0.1 °C	1 °C	0 °C	-0.5 °C	0.1 °C	0.4 °C
O=C(O)c1cc(N(Cc2ccccc2O)Cc2cc(O)ccc2O)ccc1O [LAVENDUSTIN A]	-1.1 °C	0.1 °C	1.3 °C	0.8 °C	0.3 °C	0.6 °C	0.3 °C	1.1 °C	1.1 °C	0.2 °C
